Results taken from US11591331B2, “PARP1 inhibitors and uses thereof” (Xinthera, Inc., priority 2021, dated 2023).

Legend:
[1] = system: DLD-1 BRCA2(−/−); assay: Cell growth inhibition assay (CellTiter-Glo cell viability, 7 days); type: cell-based; conditions: Homo sapiens, 168 h, DLD-1 BRCA2(-/-) cells
[2] = system: DLD-1 parental; assay: as above; type: cell-based; conditions: Homo sapiens, 168 h, DLD-1 parental cells
Description: Example A: Cell Growth Inhibition Assay
The objective of this study is to evaluate the effect of invention compounds on cell proliferation through the cell viability assay in DLD-1 BRCA2(−/−) and parental isogenic pair and MDA-MB-436 (mutated BRCA1) cell lines. The CellTiter-Glo (CTG) based cell viability assay is designed to determine the number of viable cells in the culture because of compound effect, by quantifying ATP, which indicates the presence of metabolically active cells.
DLD-1 BRCA2(−/−) and parental isogenic pair were cultured in RPMI 1640 supplemented with 10% fetal bovine serum (FBS), and MDA-MB-436 cells were cultured in DMEM supplemented with 10% FBS. Both are culture at 37° C. with 5% CO2. Invention compounds were distributed to the 384 well plate (Corning, 3764) using Echo acoustic liquid handler to form a 1:3 serially diluted final concentration with top dose of 10 or 30 μM. The cells were seeded into the plate in the density of 50 cells/well (DLD-1 parental), 200 cells/well (DLD-1 BRCA2−/−), or 500 cells/well (MDA-MB-436). After a short spun, the cells were cultured in a well moisturized incubator at 37° C. with 5% CO2 for 7 days without disturbance. The cell viability was measured by CellTiter Glo 2.0 assay kit (Promega, G9243), and growth inhibition rate was calculated and plotted against final compound concentration, and the data were fitted in Xfit to generate IC50.

[3] = system: MDA-MB-436 (mutated BRCA1) cell lines; assay: as above; type: cell-based; conditions: Homo sapiens, 168 h, MDA-MB-436 cells
[4] = In vitro human hepatic clearance in cellular relay format; type: in vitro ADME; conditions: cryopreserved hepatocytes in suspension (relay format); human hepatocytes relay, 5 incubations of 4 hrs, 0.5E+06 viable cells/mL
Procedure: (§1) Example C: In Vitro Human Hepatic Clearance in Cellular Relay Format
(§2) Working stocks of individual test articles were prepared at concentrations of 100 μM by diluting 10 mM stocks prepared in DMSO 100-fold (v:v) into ACN/1H2O (50/50, v:v). Human cryopreserved hepatocytes were thawed in a 37° C. water bath in <2 min., suspended in thawing media, and then centrifuged at 100×g for 10 min. Thawing media was aspirated, and pelleted hepatocytes were resuspended into incubation media at 1.5E+06 cells/mL. Cell viability was determined using an Acridine Orange/Propidium Iodine stain, and hepatocytes were further diluted with incubation media to 0.5E+06 viable cells/mL. Hepatocyte aliquots of 495 μL were added to wells of a 24-well plate, and test article incubations were initiated by the addition of 5 μL of 100 μM working stocks. Plates were incubated at 37° C. in a 5% CO2 atmosphere at 95% relative humidity on an orbital shaker at 300 rpm. Incubations were performed in duplicate. At time=0 and 4 hrs., aliquots of each incubation were extracted with 6 volumes ACN containing internal standards. After 4 hrs., hepatocytes were removed from the incubations via centrifugation, and supernatants were stored frozen until the following day at which point incubations were reinitiated by diluting thawed supernatants with freshly thawed hepatocytes in incubation media, again to a final concentration of 0.5E+06 viable cells/mL. These steps were repeated for a total of 5 incubations of 4 hrs. each covering 20 total hours of incubation. Incubational losses due to cellular uptake, nonspecific binding, and dilution at each relay step were corrected for. Supernatants of all incubation aliquots were diluted into ultrapure water prior to analysis via LC/MS/MS. In vitro intrinsic clearances (CLint) in μL/min/IE+06 cells were determined for each incubation from calculated in vitro half-lives determined using a standard log-linear regression approach. In vitro CLint values were scaled up using the following physiological scaling factors: 99E+06 cells/g human liver and 25.7 g human liver/kg body weight. Scaled intrinsic clearance values were finally introduced to the well-stirred liver model for the purpose of calculating predicted human hepatic clearance (CLhep,pred) in mL/min/kg assuming a human liver blood flow of 20.7 mL/min/kg and making no corrections for test article binding to red blood cells, plasma proteins, or components of the incubation system. S-Warfarin, Disopyramide and Diazepam were used as assay controls.

[5] = system: Human cryopreserved hepatocytes; assay: as above; type: in vitro ADME; conditions: predicted human hepatic clearance, well-stirred liver model, scaled from in vitro CLint
Procedure: as §1, §2

| EC50 [1] [µM] | EC50 [3] [µM] | Clhep,pred [5] [mL/min/kg] | Compound | EC50 [2] [µM] | half-life at 1 µM [4] [h] |
| --- | --- | --- | --- | --- | --- |
| 0.23 | 0.024 |  | CCc1cc2ncc(CN3CCN(c4ccc(C(=O)NC)nc4)[C@@H]4C[C@@H]43)cc2[nH]c1=O (stereo in doubt) [Example 3A, rel-5-[(1R,6S)-5-[(7-ethyl-6-oxo-5H-1,5-naphthyridin-3-yl)methyl]-2,5-diazabicyclo[4.1.0]heptan-2-yl]-N-methylpyridine-2-carboxamide] | > 30 |  |
| 0.0032 | 0.0008 |  | CCc1cc2ncc(CN3CCN(c4ccc(C(=O)NC)nc4)[C@H]4C[C@H]43)cc2[nH]c1=O (stereo in doubt) [Example 28] | 33 |  |
|  |  | 1.69 | CCc1cc2ncc(CN3CCN(c4ccc(C(=O)NC)nc4)CC3)cc2[nH]c1=O [AZD5305] |  | 31.8 |
| 0.0016 | 0.00069 |  | CCc1cc2ncc(CN3CCN(c4ccc(C(=O)NC)nc4C#N)[C@H](C)C3)cc2[nH]c1=O [Example 4, 6-cyano-5-[(2R)-4-[(7-ethyl-6-oxo-5H-1,5-naphthyridin-3-yl)methyl]-2-methylpiperazin-1-yl]-N-methylpyridine-2-carboxamide] | > 30 |  |
| 0.0028 | 0.0017 |  | CCc1cc2ncc(CN3CCN(c4ccc(C(=O)NC)nc4C4CC4)CC3)cc2[nH]c1=O [Example 6, 6-cyclopropyl-5-(4-((7-ethyl-6-oxo-5,6-dihydro-1,5-naphthyridin-3-yl)methyl)piperazin-1-yl)-N-methylpicolinamide] | 11 |  |
| 0.0031 | 0.0013 |  | CCc1cc2ncc(CN3CCN(c4ccc(C(=O)NC)c(F)c4)CC3)cc2[nH]c1=O [Example 7, 4-{4-[(7-ethyl-6-oxo-5H-1,5-naphthyridin-3-yl)methyl]piperazin-1-yl}-2-fluoro-N-methylbenzamide] | 300 |  |
| 0.0035 | 0.0015 |  | CCc1cc2ccc(CN3CCN(c4ccc(C#N)cn4)CC3)cc2[nH]c1=O [Example 9, 6-{4-[(3-ethyl-2-oxo-1H-quinolin-7-yl)methyl]piperazin-1-yl}pyridine-3-carbonitrile] | 13 |  |
| 0.0026 | 0.00068 |  | CNC(=O)c1ccc(N2CCN(Cc3ccc4c5c(c(=O)[nH]c4c3)CCC5)CC2)cn1 [Example 10, N-methyl-5-[4-({4-oxo-1H,2H,3H,5H-cyclopenta[c]quinolin-7-yl}methyl)piperazin-1-yl]pyridine-2-carboxamide] | 1400 |  |
| 0.0028 | 0.0011 |  | CNC(=O)c1ccc(N2CCN(Cc3ccc4c(c3)[nH]c(=O)c3ccoc34)CC2)cn1 [Example 11, N-methyl-5-[4-({4-oxo-5H-furo[3,2-c]quinolin-7-yl}methyl)piperazin-1-yl]pyridine-2-carboxamide] | 440 |  |
| 0.0011 | 0.00062 |  | CCc1cc2ncc(CN3CCN(c4ccc(C(=O)NC5CC5)nc4)CC3)cc2[nH]c1=O [Example 12, N-cyclopropyl-5-{4-[(7-ethyl-6-oxo-5H-1,5-naphthyridin-3-yl)methyl]piperazin-1-yl}pyridine-2-carboxamide] | 51 |  |
| 0.001 | 0.00054 |  | CCc1cc2ncc(CN3CCN(c4ccc(C(=O)NCC(F)F)nc4)CC3)cc2[nH]c1=O [Example 13, N-(2,2-difluoroethyl)-5-{4-[(7-ethyl-6-oxo-5H-1,5-naphthyridin-3-yl)methyl]piperazin-1-yl} pyridine-2-carboxamide] | > 30 |  |
| 0.001 | 0.00053 |  | CCc1cc2ncc(CN3CCN(c4ccc(C(=O)NC)nc4C(F)F)CC3)cc2[nH]c1=O [Example 14, 6-(difluoromethyl)-5-{4-[(7-ethyl-6-oxo-5H-1,5-naphthyridin-3-yl)methyl]piperazin-1-yl}-N-methylpyridine-2-carboxamide] | > 30 |  |
| 0.0042 | 0.0013 |  | CCc1cc2ncc(CN3CCC(c4ccc(C(=O)NC)nc4)CC3)cc2[nH]c1=O [Example 16, 5-(1-((7-ethyl-6-oxo-5,6-dihydro-1,5-naphthyridin-3-yl)methyl)piperidin-4-yl)-N-methylpicolinamide] | > 30 |  |
| 0.0021 | 0.0011 |  | CCc1cc2ncc(CN3CCN(c4ccc(C(=O)NC)cc4C#N)CC3)cc2[nH]c1=O [Example 17, 3-cyano-4-{4-[(7-ethyl-6-oxo-5H-1,5-naphthyridin-3-yl)methyl]piperazin-1-yl}-N-methylbenzamide] | > 30 |  |
| 0.0015 | 0.001 |  | CCc1cc2ncc(CN3CCN4c5ccc(C(=O)NC)nc5OC[C@H]4C3)cc2[nH]c1=O [Example 22A, (R)-3-((7-ethyl-6-oxo-5,6-dihydro-1,5-naphthyridin-3-yl)methyl)-N-methyl-1,2,3,4,4a,5-hexahydropyrazino[1,2-d]pyrido[2,3-b][1,4]oxazine-8-carboxamide] | > 30 |  |
| 0.0087 | 0.0042 |  | CCc1cc2ncc(CN3CC(Oc4ccc(C(=O)NC)nc4)C3)cc2[nH]c1=O [Example 25, 5-({1-[(7-ethyl-6-oxo-5H-1,5-naphthyridin-3-yl)methyl]azetidin-3-yl}oxy)-N-methylpyridine-2-carboxamide] | > 30 |  |
| 0.22 | 0.058 |  | CCc1cc2ncc(CN3CCN(c4cnc(C(=O)NC)s4)CC3)cc2[nH]c1=O [Example 30] | 40 |  |
| 0.048 | 0.015 |  | CNC(=O)c1ccc(N2CCN(Cc3ccc4cc(OC(F)F)c(=O)[nH]c4c3)CC2)cn1 [Example 31] | 56 |  |
| 0.077 | 0.015 |  | CCc1cc2ncc(CN3CCN(c4ccc(-n5cnnc5)cc4)CC3)cc2[nH]c1=O [Example 32] | > 30 |  |
| 0.0065 | 0.0031 |  | CNC(=O)c1ccc(N2CCN(Cc3cnc4cc(C)c(=O)[nH]c4c3)CC2)cn1 [Example 33] | > 30 |  |
| 0.0023 | 0.0013 |  | [2H]C([2H])(c1cnc2cc(CC)c(=O)[nH]c2c1)N1CCN(c2cnc(C(=O)NC)c(F)c2)CC1 [Example 35] | > 30 |  |
| 0.0071 | 0.0022 | <0.9 | CCc1cc2ncc(CN3CCN(c4ccc(C(=O)N[C@H](C)COC)nc4)CC3)cc2[nH]c1=O [Example 56] |  | > 62.1 |
| 0.0041 | 0.0015 |  | CCc1cc2ncc(CN3CCN(c4ccc(C(=O)NC)nc4)[C@H](CF)C3)cc2[nH]c1=O [Example 68] | > 30 |  |
| 0.0042 | 0.0025 |  | CNC(=O)c1ccc(N2CCN(Cc3cnc4c(c3)[nH]c(=O)c3ccoc34)CC2)cn1 [Example 72] | > 30 |  |
| 0.32 | 0.0092 |  | CCc1cc2ncc(CN3C[C@@H]4C(c5ccc(C(=O)NC)nc5)[C@@H]4C3)cc2[nH]c1=O (stereo partly drawn) [Example 146] | > 30 |  |

| Compound | EC50 [1] [µM] | EC50 [3] [µM] | Clhep,pred [5] [mL/min/kg] | EC50 [2] [µM] | half-life at 1 µM [4] [h] |
| --- | --- | --- | --- | --- | --- |
| CCc1cc2ncc(CN3CC=C(c4ccc(C(=O)NC)nc4)CC3)cc2[nH]c1=O [Example 8, 1′-((7-ethyl-6-oxo-5,6-dihydro-1,5-naphthyridin-3-yl)methyl)-N-methyl-1′,2′,3′,6′-tetrahydro-[3,4′-bipyridine]-6-carboxamide] | 0.001 | 0.00025 |  | 89 |  |
